Experimental data published in PubChem BioAssay (NCI).
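These data come from cells grown in 96-well plates and exposed to compound for 48 hours at five concentrations. At the TGI there is no net growth.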

Assays:
Assay in all cases: NCI anticancer screen, dose series, 48 h
A498 renal = tested on: A498 renal
NCI-H460 lung = tested on: NCI-H460 lung
SNB-19 CNS = tested on: SNB-19 CNS
IGROV1 ovarian = tested on: IGROV1 ovarian
HOP-92 NSCLC = tested on: HOP-92 NSCLC
DU-145 prostate = tested on: DU-145 prostate
U251 CNS = tested on: U251 CNS
HCC-2998 colon = tested on: HCC-2998 colon
OVCAR-5 ovarian = tested on: OVCAR-5 ovarian
MDA-N = tested on: MDA-N
MDA-MB-231 breast = tested on: MDA-MB-231 breast
NCI-H226 lung = tested on: NCI-H226 lung
SK-MEL-28 melanoma = tested on: SK-MEL-28 melanoma
NCI-H23 lung = tested on: NCI-H23 lung
EKVX NSCLC = tested on: EKVX NSCLC
MALME-3M melanoma = tested on: MALME-3M melanoma
CCRF-CEM leukemia = tested on: CCRF-CEM leukemia
SK-MEL-5 melanoma = tested on: SK-MEL-5 melanoma
UACC-62 melanoma = tested on: UACC-62 melanoma
HT29 colon = tested on: HT29 colon
ACHN renal = tested on: ACHN renal
CAKI-1 renal = tested on: CAKI-1 renal
M14 melanoma = tested on: M14 melanoma
NCI-H522 lung = tested on: NCI-H522 lung
PC-3 prostate = tested on: PC-3 prostate
HL-60(TB) leukemia = tested on: HL-60(TB) leukemia
HS 578T breast = tested on: HS 578T breast
RPMI-8226 leukemia = tested on: RPMI-8226 leukemia
SK-OV-3 ovarian = tested on: SK-OV-3 ovarian
SR leukemia = tested on: SR leukemia
HCT-15 colon = tested on: HCT-15 colon
SK-MEL-2 melanoma = tested on: SK-MEL-2 melanoma
COLO 205 colon = tested on: COLO 205 colon
LOX IMVI melanoma = tested on: LOX IMVI melanoma
HCT-116 colon = tested on: HCT-116 colon
SF-268 CNS = tested on: SF-268 CNS
RXF 393 renal = tested on: RXF 393 renal
K-562 leukemia = tested on: K-562 leukemia
786-0 renal = tested on: 786-0 renal
OVCAR-4 ovarian = tested on: OVCAR-4 ovarian
T-47D breast = tested on: T-47D breast
MCF7 breast = tested on: MCF7 breast
HOP-62 NSCLC = tested on: HOP-62 NSCLC
OVCAR-3 ovarian = tested on: OVCAR-3 ovarian
TK-10 renal = tested on: TK-10 renal
SF-295 CNS = tested on: SF-295 CNS
BT-549 breast = tested on: BT-549 breast
SW-620 colon = tested on: SW-620 colon
A549 NSCLC = tested on: A549 NSCLC
UO-31 renal = tested on: UO-31 renal
SN12C renal = tested on: SN12C renal
MDA-MB-435 = tested on: MDA-MB-435
SF-539 CNS = tested on: SF-539 CNS
MOLT-4 leukemia = tested on: MOLT-4 leukemia
UACC-257 melanoma = tested on: UACC-257 melanoma

Measured: TGI

CN1N(c2ccccc2)C(=O)C2=NC=C(C(=O)c3ccccc3)C(=N)C21C (stereo not given)
> 100 µM: A498 renal | NCI-H460 lung | SNB-19 CNS | IGROV1 ovarian | HOP-92 NSCLC | DU-145 prostate | U251 CNS | HCC-2998 colon | OVCAR-5 ovarian | MDA-N | MDA-MB-231 breast | NCI-H226 lung | SK-MEL-28 melanoma | NCI-H23 lung | EKVX NSCLC | MALME-3M melanoma | CCRF-CEM leukemia | SK-MEL-5 melanoma | UACC-62 melanoma | HT29 colon | ACHN renal | CAKI-1 renal | M14 melanoma | NCI-H522 lung | PC-3 prostate | HL-60(TB) leukemia | HS 578T breast | RPMI-8226 leukemia | SK-OV-3 ovarian | SR leukemia | HCT-15 colon | SK-MEL-2 melanoma | COLO 205 colon | LOX IMVI melanoma | HCT-116 colon | SF-268 CNS | RXF 393 renal | K-562 leukemia | 786-0 renal | OVCAR-4 ovarian | T-47D breast | MCF7 breast | HOP-62 NSCLC | OVCAR-3 ovarian | TK-10 renal | SF-295 CNS | BT-549 breast | SW-620 colon | A549 NSCLC | UO-31 renal | SN12C renal | MDA-MB-435 | SF-539 CNS | MOLT-4 leukemia | UACC-257 melanoma
